Consider six compounds from patent US10301304B2, “Selective inhibitor of phosphatidylinositol 3-kinase-gamma” (VERTEX PHARMACEUTICALS INCORPORATED, priority 2013, dated 2019).

The nature of series [1]: Oral pharmacokinetics / bioavailability. Format: in vivo, Rat. The note with it: rat, in vivo, Oral gavage, 3 mg/kg nominal dose, vehicle 0.2%MC/1%SLS; for AUC: read-out: Rat PO AUC; for Cmax: read-out: Rat PO Cmax. The text has this:
The bioavailability in monkey (greater than 100%) may be explained by the tenfold difference between the IV and oral doses. Compound 1 was rapidly absorbed in all species, with maximum systemic concentration observed within approximately one to three hours of dosing.

Series [2] is described as follows: Intravenous bolus pharmacokinetics. Format: in vivo, Rat. As to conditions: rat, plasma, Intravenous bolus, 0.5 mg/kg nominal dose; for AUC: iv, 0.5 mg/kg, read-out: Rat IV AUC; for clearance: read-out: Rat IV CL. The text has this: Following intravenous administration of a single bolus dose, Compound 1 had low systemic clearance and a long half-life in all species tested. […] The volume of distribution was greater than the total body water, indicating distribution of Compound 1 to tissues.

Series [3] relates to collagen-induced arthritis (CIA). Kind of series: therapeutic mouse collagen-induced arthritis (CIA) model. Format: in vivo. Details: Histopathology Summed Score, Knees / Therapeutic Paw Score AUC / Histopathology Summed Score, Six Joints / Histopathology Summed Score, Paws: scale not given here. The note with it: Fostamatinib 30 mg/kg BID. The procedure: Compound 1 was tested in the therapeutic mouse collagen-induced arthritis (CIA) model at 2.5 mg/kg BID (5 mg/kg/day), 5 mg/kg BID (10 mg/kg/day) or 10 mg/kg BID (20 mg/kg/day). Fostamatinib, a Syk small molecule inhibitor used as a reference standard, was dosed orally at 30 mg/kg BID (60 mg/kg/day). Compounds were dosed for 10 days in a 12/12-hour BID dosing regimen until the end of the study. Compound 1 was formulated in 0.2% MC, 1% SLS. Dosing volume was 10 mL/kg. Terminal plasma samples were collected at 2, 4 and 12 hours post last dose. All four paws and both knees were collected and processed for histopathology.

In another series the test system is CYP1A2. Description: CYP1A2 Induction in Human Hepatocytes. Format: in vitro ADME. The note with it: 50 μM Omeprazole. The procedure: CYP activity was determined by monitoring metabolite formation of specific CYP probe substrates (phenacetin for CYP1A2 and testosterone for CYP3A4) using LC-MS/MS. CYP messenger ribonucleic acid (mRNA) was analyzed by RT-PCR to confirm CYP induction potential.

By AUC is commonly meant the area under the concentration-time curve, a measure of exposure. What is called Cmax is the highest concentration seen after dosing. Turning to `CCOc1cncc(-c2cc(C)c3c(n2)C(C)(C)N(c2cnn(CC(F)F)c2)C3=O)c1` [B, reference compound], in series [1], the AUC was determined as 0.6 µg·h/mL and the peak concentration (Cmax) was 0.12 µg/mL. For the same compound, in series [2], the exposure (AUC) came to 0.33 µg·h/mL and the clearance is 1.32 L/h/kg.

Take `Cc1cc(-c2cncc(OCC(F)F)c2)nc2c1C(=O)N(c1cnn(CC(F)F)c1)C2(C)C` [C, reference compound]: in series [1], the AUC amounted to 3 µg·h/mL and the Cmax came to 0.2 µg/mL. In series [2], the AUC was 0.59 µg·h/mL and the clearance turned out to be 0.66 L/h/kg.

Consider `COc1cncc(-c2cc(C)c3c(n2)C(C)(C)N(c2cnn(CC(F)F)c2)C3=O)c1` [Compound A, reference compound], for which, in series [1], the exposure (AUC) was determined as 0.3 µg·h/mL and the maximum concentration (Cmax) amounted to 0.06 µg/mL. For the same compound, in series [2], the AUC is 0.22 µg·h/mL and the clearance stood at 1.32 L/h/kg.

As to `Cc1cc(-c2cncc(OCC(F)(F)F)c2)nc2c1C(=O)N(c1cnn(CC(F)F)c1)C2(C)C` [D, reference compound], in series [1], the AUC stood at 9 µg·h/mL and the highest concentration (Cmax) stood at 0.5 µg/mL. In series [2], the AUC came to 1.2 µg·h/mL and the clearance turned out to be 0.42 L/h/kg.

As to `COc1cc(Nc2ncc(F)c(Nc3ccc4c(n3)N(COP(=O)(O)O)C(=O)C(C)(C)O4)n2)cc(OC)c1OC` [Fostamatinib, reference compound], in series [3], the “clinical arthritis scores, therapeutic paws (FIG. 2), significantly reduced” value is reported as “not”; the “reduction of arthritis scores AUC, prophylactic paws only” value turned out to be 32%; the “reduction of clinical arthritis scores AUC vs vehicle, all paws” value amounted to 25%. In series [3] (10 days), the “All Paw Score AUC” value is on record as “*23.61”; the “Histopathology Summed Score, Knees” value is recorded as 8.90; the “Histopathology Summed Score, Paws” value is recorded as 10.25; the “Histopathology Summed Score, Six Joints” value was found to be 9.80. Further, in series [3] (10 days), the “Prophylactic Paw Score AUC” value was “*48.30” and the “Therapeutic Paw Score AUC” value turned out to be 46.15. In addition, in series [3] (*d2-11, vs vehicle), the “Arthritis scores measured daily, all paws (FIG. 1)” value was “significantly reduced toward normal”. Also, the “clinical arthritis scores, prophylactic paws (FIG. 3)” value in series [3] (*d5-9) is on record as “significantly reduced”.

Regarding `COc1ccc2[nH]c([S+]([O-])Cc3ncc(C)c(OC)c3C)nc2c1` (stereo not drawn) [Omeprazole, reference compound], the results for the “CYP1A2 mRNA message” value in the series on CYP1A2 (lot 8123), in the series with CYP1A2 (lot LMP) and in the series with CYP1A2 (lot YOW) were 118.0 fold change, 71.5 fold change and 83.6 fold change, respectively. Moreover, the “Phenacetin O-Dealkylation” value in the series with CYP1A2 (lot 8123) was found to be 25.7 fold change; in the series on CYP1A2 (lot LMP), 36.3 fold change; in the series on CYP1A2 (lot YOW) it was 17.9 fold change.
